According to patent US12527779B2, “Prostaglandin E2 (PGE2) EP4 receptor antagonists” (Domain Therapeutics, priority 2019, dated 2026):
Counter-ions that a name gives are not always drawn.

Biological target: T1, human EP4 (hEP4) receptor (Homo sapiens, UniProt P35408)
T1 construct: expressed in transfected cells; host or cells: HEK-293 T cells, transient co-transfection with polyethylenimine
Assay: In vitro human EP4 functional antagonist activity using BRET biosensors (cAMP EPAC biosensor, TCS2510 stimulation)
Type: cell-based
Conditions: antagonist activity vs EC60 TCS2510, hEP4 in HEK-293 T cells
Method: Examples of the present invention were tested successively for their agonist and antagonist activities on human EP4 (hEP4) receptor transiently over-expressed in HEK-293 T cells. […] The assay used to measure compound activity is based on the BRET technology. The unimolecular cAMP biosensor used to detect intracellular cAMP levels following GPCR stimulation consists of the EPAC protein fused to N- and C-terminal of Luciferase and GFP respectively.
Cell Culture and Transfection: HEK-293 T cells are maintained in Dulbecco's Modified Eagle's Medium supplemented with 10% Foetal Calf Serum, 1% Penicillin/Streptomycin at 37° C./5% CO2. Cells are co-transfected using polyethylenimine (25 kDa linear) with two DNA plasmids encoding hEP4, EPAC fused to luciferase (BRET donor) and to GFP (BRET acceptor). After transfection, cells are cultured (40,000 cells per well) for 48 h at 37° C./5% CO2.
BRET assay: Receptor activity is detected by changes in BRET signal. On the day of the assay, cells are rinsed and incubated in assay buffer (1.8 mM CaCl2, 1 mM MgCl2, 2.7 mM KCl, 137 mM NaCl, 0.4 mM NaH2PO4, 5.5 mM D-Glucose, 11.9 mM NaHCO3, 25 mM Hepes). Then, plates are equilibrated 1 h at 22° C. before adding compounds. Compounds and luciferase substrate are added to the cells using an automated device (Freedom Evo®, Tecan) and BRET readings are collected on EnVision (PerkinElmer) with specific filters (410 nm BW 80 nm, 515 nm BW 30 nm). Agonist and antagonist activities of compounds are consecutively evaluated on the same cell plate. Agonist activity is first measured after 5 min incubation with compound alone on the cells. Then, cells are stimulated by an EC60 TCS2510 concentration and luminescence is recorded for additional 10 min. EC60 TCS2510 concentration is the concentration giving 60% of the maximal TCS2510 response. Agonist or antagonist activities are evaluated in comparison to basal signals evoked by assay buffer or EC60 TCS2510 alone, respectively.
For IC50 determination, a dose-response test is performed using 10 concentrations (ranging over 4.5 logs) of each compound. Dose-response curves are fitted using the sigmoidal dose-response (variable slope) analysis in GraphPad Prism software (GraphPad Software) and IC50 of antagonist activity is calculated. Dose-response experiments are performed in duplicate, in two independent experiments. IC50 values are categorized as following: A: IC50<0.1 μM; B: IC50<1 μM.

T1 sequence (P35408 whole entry): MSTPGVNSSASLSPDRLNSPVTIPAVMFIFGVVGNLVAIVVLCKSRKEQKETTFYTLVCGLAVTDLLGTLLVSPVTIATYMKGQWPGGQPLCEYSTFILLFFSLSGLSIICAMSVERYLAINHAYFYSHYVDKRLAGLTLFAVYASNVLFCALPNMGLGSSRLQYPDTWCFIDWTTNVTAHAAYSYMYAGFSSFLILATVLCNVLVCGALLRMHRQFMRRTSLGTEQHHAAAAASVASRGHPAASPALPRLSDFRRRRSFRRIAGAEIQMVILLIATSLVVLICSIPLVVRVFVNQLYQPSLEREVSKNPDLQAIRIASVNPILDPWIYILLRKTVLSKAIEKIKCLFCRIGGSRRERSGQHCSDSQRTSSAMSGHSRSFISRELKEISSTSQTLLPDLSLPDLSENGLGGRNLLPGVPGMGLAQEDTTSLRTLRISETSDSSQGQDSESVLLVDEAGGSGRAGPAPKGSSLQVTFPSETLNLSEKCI

IC50 [µM] | Structure (SMILES)
< 0.1 | C[C@H](NC(=O)C1(N2CC[C@@H](Oc3cccc(Cl)c3)C2)CCC1)c1ccc(C(N)=O)cc1 [Example 172, 4-[(1S)-1-[[1-[(3R)-3-(3-Chlorophenoxy)pyrrolidin-1-yl]cyclobutane-1-carbonyl]amino]ethyl]benzamide, hydrochloride]
< 1 | COc1ccccc1[C@H](C)NC(=O)C1(N2CC[C@@H](Oc3cccc(C(F)(F)F)c3)C2)CCOCC1 [Example 197, N—((S)-1-(2-Methoxyphenyl)ethyl)-4-((R)-3-(3-(trifluoromethyl)phenoxy)pyrrolidin-1-yl)tetrahydro-2H-pyran-4-carboxamide, hydrochloride]
< 1 | C[C@H](NC(=O)C1(N2CC[C@@H](Oc3cccc(C(F)(F)F)c3)C2)CCOCC1)c1cccc(Cl)c1 [Example 191, N—((S)-1-(3-Chlorophenyl)ethyl)-4-((R)-3-(3-(trifluoromethyl)phenoxy)pyrrolidin-1-yl)tetrahydro-2H-pyran-4-carboxamide, hydrochloride]
< 0.1 | CN(CCOc1cccc(Cl)c1)C1(C(=O)NC2(c3ccc(C(=O)O)cc3)CC2)CCOC1 (stereo not drawn) [Example 77, 4-[1-[[3-[2-(3-Chlorophenoxy)ethyl-methyl-amino]tetrahydrofuran-3-carbonyl]amino]cyclopropyl]benzoic acid, hydrochloride]
< 0.1 | C[C@H](NC(=O)C1(N2CC[C@@H](Oc3cccc(Cl)c3)C2)CCOCC1)c1ccc(C(=O)O)cc1 [Example 140, 4-[(1S)-1-[[4-[(3R)-3-(3-Chlorophenoxy)pyrrolidin-1-yl]tetrahydropyran-4-carbonyl]amino]ethyl]benzoic acid, hydrochloride]
< 0.1 | C[C@H](NC(=O)C1(NCCOc2ccccc2)CCCC1)c1ccc(C(=O)O)cc1 [Example 61, 4-[(1S)-1-[[1-(2-Phenoxyethylamino)cyclopentanecarbonyl]amino]ethyl]benzoic acid, hydrochloride]
< 0.1 | CN(CCOc1ccccc1OC(F)(F)F)C1(C(=O)NC2(c3ccc(C(=O)O)cc3)CC2)CCOCC1 [Example 44, 4-[1-[[4-[2-(2-Trifluoromethoxyphenoxy)ethyl-methyl-amino]tetrahydropyran-4-carbonyl]amino]cyclopropyl]benzoic acid, hydrochloride]
< 0.1 | C[C@H](NC(=O)C1(c2ccc(OCC3CCCCC3)cc2)CCCC1)c1ccc(C(=O)O)cc1 [Example 108, 4-[(1S)-1-[[1-[4-(Cyclohexylmethoxy)phenyl]cyclopentanecarbonyl]amino]ethyl]benzoic acid]
< 1 | CN(CCOc1ccccc1)C1(C(=O)NC2(c3ccc(C(=O)O)cn3)CC2)CCOCC1 [Example 54, 6-[1-[[4-[Methyl(2-phenoxyethyl)amino]tetrahydropyran-4-carbonyl]amino]cyclopropyl]pyridine-3-carboxylic acid, hydrochloride]
< 0.1 | C[C@H](NC(=O)C1(N2CC[C@@H](Oc3cccc(C(F)(F)F)c3)C2)CCOCC1)c1ccc(S(N)(=O)=O)cc1 [Example 178, N—((S)-1-(4-Sulfamoylphenyl)ethyl)-4-((R)-3-(3-(trifluoromethyl)phenoxy)pyrrolidin-1-yl)tetrahydro-2H-pyran-4-carboxamide, hydrochloride]
< 0.1 | C[C@H](NC(=O)C1(c2ccc(OCc3ccccc3)cc2)CCCC1)c1ccc(C(=O)O)cc1 [Example 109, 4-[(1S)-1-[[1-(4-Benzyloxyphenyl)cyclopentanecarbonyl]amino]ethyl]benzoic acid]
< 0.1 | C[C@H](NC(=O)C1(NCCOc2cccc(C(F)(F)F)c2)CCOCC1)c1ccc(C(=O)O)cc1 [Example 12, 4-[(1S)-1-[[4-[2-[3-(Trifluoromethyl)phenoxy]ethylamino]tetrahydropyran-4-carbonyl]amino]ethyl]benzoic acid]
< 1 | Cc1ccc(OCCN(C)C2(C(=O)NC3(c4ccc(C(=O)O)cc4)CC3)CCOCC2)cc1 [Example 37, 4-[1-[[4-[2-(4-Methylphenoxy)ethyl-methyl-amino]tetrahydropyran-4-carbonyl]amino]cyclopropyl]benzoic acid, hydrochloride]
< 0.1 | Cc1cccc(O[C@@H]2CCN(C3(C(=O)N[C@@H](C)c4ccc(C(=O)O)cc4)CCOCC3)C2)c1 [Example 150, 4-[(1S)-1-[[4-[(3R)-3-(3-Methylphenoxy)pyrrolidin-1-yl]tetrahydropyran-4-carbonyl]amino]ethyl]benzoic acid, hydrochloride]
< 1 | C[C@H](NC(=O)C1(c2ccc(OCCc3ccccc3)cc2)CCOCC1)c1ccc(C(=O)O)cc1 [Example 94]
< 1 | C[C@H](NC(=O)C1(c2ccc(OCC3CCCCC3)nc2)CCOCC1)c1ccc(C(=O)O)cc1 [Example 121, 4-[(1S)-1-[[4-[6-(Cyclohexylmethoxy)-3-pyridyl]tetrahydropyran-4-carbonyl]amino]ethyl]benzoic acid]
< 0.1 | O=C(O)c1ccc(C2(NC(=O)C3(N4CC[C@@H](Oc5cccc(OC(F)(F)F)c5)C4)CCOCC3)CC2)cc1 [Example 147, 4-[1-[[4-[(3R)-3-[3-(Trifluoromethoxy)phenoxy]pyrrolidin-1-yl]tetrahydropyran-4-carbonyl]amino]cyclopropyl]benzoic acid, hydrochloride]
< 0.1 | O=C(O)c1ccc(C2(NC(=O)C3(N4CCC[C@@H](Oc5cccc(Cl)c5)C4)CCOCC3)CC2)cc1 [Example 137, 4-[1-[[4-[(3R)-3-(3-Chlorophenoxy)-1-piperidyl]tetrahydropyran-4-carbonyl]amino]cyclopropyl]benzoic acid, hydrochloride]
< 0.1 | C[C@H](NC(=O)C1(N2CC[C@@H](Oc3cccc(C(F)(F)F)c3)C2)CCC1)c1ccc(C(=O)O)cc1 [Example 165, 4-[(1S)-1-[[1-[(3R)-3-[3-(Trifluoromethyl)phenoxy]pyrrolidin-1-yl]cyclobutane-1-carbonyl]amino]ethyl]benzoic acid, hydrochloride]
< 0.1 | C[C@H](NC(=O)C1(NCCOc2cccc(Cl)c2)CCCC1)c1ccc(C(=O)O)cc1 [Example 63, 4-[(1S)-1-[[1-[2-(3-Chlorophenoxy)ethylamino]cyclopentanecarbonyl]amino]ethyl]benzoic acid, hydrochloride]
< 0.1 | COc1cccc(OCCN(C)C2(C(=O)N[C@@H](C)c3ccc(C(=O)O)cc3)CCCCC2)c1 [Example 60, 4-[(1S)-1-[[1-[2-(3-Methoxyphenoxy)ethyl-methyl-amino]cyclohexanecarbonyl]amino]ethyl]benzoic acid, hydrochloride]
< 0.1 | O=C(NC[C@H]1CC[C@H](C(=O)O)CC1)C1(N2CC[C@@H](Oc3cccc(C(F)(F)F)c3)C2)CCOCC1 [Example 200, (1R,4R)-4-((4-((R)-3-(3-(Trifluoromethyl)phenoxy)pyrrolidin-1-yl)tetrahydro-2H-pyran-4-carboxamido)methyl)cyclohexane-1-carboxylic acid, hydrochloride]
< 0.1 | C[C@H](NC(=O)C(C)(C)N1CC[C@@H](Oc2cccc(Cl)c2)C1)c1ccc(C(N)=O)cc1 [Example 174, hydrochloride]
< 1 | C[C@H](NC(=O)C1(c2cccc(OCc3ccccc3)c2)CCOCC1)c1ccc(C(=O)O)cc1 [Example 99, 4-[(1S)-1-[[4-(3-Benzyloxyphenyl)tetrahydropyran-4-carbonyl]amino]ethyl]benzoic acid]
< 1 | C[C@H](NC(=O)C1(N2CC[C@@H](Oc3cccc(C(F)(F)F)c3)C2)CCOCC1)c1ccccc1 [Example 183, N—((S)-1-Phenylethyl)-4-((R)-3-(3-(trifluoromethyl)phenoxy)pyrrolidin-1-yl)tetrahydro-2H-pyran-4-carboxamide, hydrochloride]
< 0.1 | C[C@H](NC(=O)C1(c2ccc(OCCCc3ccccc3)cc2)CCOCC1)c1ccc(C(=O)O)cc1 [Example 92, 4-[(1S)-1-[[4-[4-(3-Phenylpropoxy)phenyl]tetrahydropyran-4-carbonyl]amino]ethyl]benzoic acid]
< 0.1 | C[C@H](NC(=O)C1(N2CC[C@@H](Oc3cccc(Cl)c3)C2)CCCCC1)c1ccc(C(=O)O)cc1 [Example 155, 4-[(1S)-1-[[1-[(3R)-3-(3-Chlorophenoxy)pyrrolidin-1-yl]cyclohexane-1-carbonyl]amino]ethyl]benzoic acid, hydrochloride]
